Assay results from publication PMC3914206.

Columns and labels:
Type in all cases: binding
Conditions in all cases: Compound Concentration 10 µM
[1] = biological target: T1, panel of 442 kinases (Homo sapiens, UniProt Q99755)
T1 construct: purchased KINOMEscan
Text: (§1) We assessed the selectivity of members of this scaffold using the KINOMEscan methodology across a near comprehensive panel of 442 kinases [[18,27]].

[2] = biological target: T2, panel of 442 kinases (Homo sapiens, UniProt O14730)
T2 construct: purchased KINOMEscan
T2 sequence (O14730 1-519): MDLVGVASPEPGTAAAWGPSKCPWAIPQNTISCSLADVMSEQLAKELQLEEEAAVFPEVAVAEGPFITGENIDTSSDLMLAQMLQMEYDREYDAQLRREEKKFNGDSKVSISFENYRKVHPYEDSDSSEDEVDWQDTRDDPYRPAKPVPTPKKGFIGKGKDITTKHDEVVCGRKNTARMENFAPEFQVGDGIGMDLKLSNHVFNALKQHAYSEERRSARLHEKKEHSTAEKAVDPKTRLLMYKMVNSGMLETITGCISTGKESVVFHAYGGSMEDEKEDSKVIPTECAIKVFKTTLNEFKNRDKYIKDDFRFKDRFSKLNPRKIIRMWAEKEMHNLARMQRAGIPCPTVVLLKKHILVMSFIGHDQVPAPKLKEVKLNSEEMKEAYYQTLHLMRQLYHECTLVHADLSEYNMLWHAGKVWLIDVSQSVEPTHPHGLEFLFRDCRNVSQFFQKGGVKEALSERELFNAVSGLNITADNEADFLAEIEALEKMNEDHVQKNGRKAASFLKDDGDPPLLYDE
Text: as §1

[3] = biological target: T3, panel of 442 kinases (Homo sapiens, UniProt P06213)
T3 construct: purchased KINOMEscan
Text: as §1

T3 sequence (P06213 28-1382): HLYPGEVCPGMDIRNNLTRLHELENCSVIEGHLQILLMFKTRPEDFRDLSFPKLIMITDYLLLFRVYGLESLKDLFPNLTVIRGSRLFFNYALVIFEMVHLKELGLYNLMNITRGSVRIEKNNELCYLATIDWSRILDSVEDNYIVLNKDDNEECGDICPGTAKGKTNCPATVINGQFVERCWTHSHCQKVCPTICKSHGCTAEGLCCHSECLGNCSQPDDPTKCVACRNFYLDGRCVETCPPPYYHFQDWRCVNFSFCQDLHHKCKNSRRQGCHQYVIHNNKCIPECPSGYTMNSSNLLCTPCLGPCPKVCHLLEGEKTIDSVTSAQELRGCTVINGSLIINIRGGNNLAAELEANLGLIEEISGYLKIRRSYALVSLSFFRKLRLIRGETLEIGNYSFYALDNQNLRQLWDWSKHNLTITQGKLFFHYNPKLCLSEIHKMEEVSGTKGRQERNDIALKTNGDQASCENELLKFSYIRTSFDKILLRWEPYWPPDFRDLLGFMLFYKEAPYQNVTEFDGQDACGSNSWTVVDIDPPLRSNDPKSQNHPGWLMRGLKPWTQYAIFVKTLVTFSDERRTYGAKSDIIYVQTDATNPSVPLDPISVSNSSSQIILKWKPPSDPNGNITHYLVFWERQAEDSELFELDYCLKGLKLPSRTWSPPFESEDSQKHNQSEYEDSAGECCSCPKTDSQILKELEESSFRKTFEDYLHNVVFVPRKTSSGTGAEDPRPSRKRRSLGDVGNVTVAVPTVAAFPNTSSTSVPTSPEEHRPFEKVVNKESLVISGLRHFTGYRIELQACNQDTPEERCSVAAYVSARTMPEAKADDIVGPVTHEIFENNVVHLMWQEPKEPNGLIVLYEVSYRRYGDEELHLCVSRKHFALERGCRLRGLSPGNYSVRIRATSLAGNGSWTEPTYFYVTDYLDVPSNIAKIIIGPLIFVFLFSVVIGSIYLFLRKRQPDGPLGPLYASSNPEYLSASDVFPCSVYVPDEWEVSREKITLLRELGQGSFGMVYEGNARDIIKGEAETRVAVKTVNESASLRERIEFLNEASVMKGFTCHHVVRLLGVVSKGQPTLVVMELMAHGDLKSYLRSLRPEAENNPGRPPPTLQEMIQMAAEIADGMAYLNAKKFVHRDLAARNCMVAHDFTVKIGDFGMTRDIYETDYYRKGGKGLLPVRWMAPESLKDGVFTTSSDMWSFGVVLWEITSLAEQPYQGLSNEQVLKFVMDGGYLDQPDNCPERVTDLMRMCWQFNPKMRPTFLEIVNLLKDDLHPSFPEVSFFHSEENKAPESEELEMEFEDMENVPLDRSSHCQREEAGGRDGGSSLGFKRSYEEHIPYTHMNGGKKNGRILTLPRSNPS
T1 sequence (Q99755 whole entry): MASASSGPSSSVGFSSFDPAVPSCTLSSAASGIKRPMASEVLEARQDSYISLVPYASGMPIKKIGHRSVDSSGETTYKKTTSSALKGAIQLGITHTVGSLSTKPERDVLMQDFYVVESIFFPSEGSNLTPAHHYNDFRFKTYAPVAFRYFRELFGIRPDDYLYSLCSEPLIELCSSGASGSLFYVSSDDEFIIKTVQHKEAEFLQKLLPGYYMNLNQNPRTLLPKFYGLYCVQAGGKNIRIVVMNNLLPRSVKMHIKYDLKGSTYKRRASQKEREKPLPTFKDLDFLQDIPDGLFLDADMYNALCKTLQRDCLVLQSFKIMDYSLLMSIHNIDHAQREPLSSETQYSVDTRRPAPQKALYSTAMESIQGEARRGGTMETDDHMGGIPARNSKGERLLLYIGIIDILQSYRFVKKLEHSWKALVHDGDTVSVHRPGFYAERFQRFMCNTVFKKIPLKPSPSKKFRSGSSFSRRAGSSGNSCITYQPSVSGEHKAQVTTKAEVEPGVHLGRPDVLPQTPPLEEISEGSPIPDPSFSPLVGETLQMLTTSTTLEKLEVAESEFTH

SMILES	KINOMEscan: PIP5K1A [1]	KINOMEscan: RIOK3 [2]	KINOMEscan: INSR [3]
COc1cc(C(=O)N2CCC(N3CCN(C)CC3)CC2)ccc1Nc1ncc2c(n1)N(C)c1ccccc1C(=O)N2C [15 (LRRK2-IN-1)]	90	85	84
COc1cc(C(=O)N2CCC(N3CCN(C)CC3)CC2)ccc1Nc1ncc2c(n1)N1CCc3cccc(c31)C(=O)N2C [Compound 24]	–	74	78
COc1cc(C(=O)N2CCC(N3CCN(C)CC3)CC2)ccc1Nc1ncc2c(n1)N(C1CCCC1)c1ccccc1C(=O)N2C [Compound 25, 11-cyclopentyl-2-((2-methoxy-4-(4-(4-methylpiperazin-1-yl)piperidine-1-carbonyl)phenyl)amino)-5-methyl-5H-benzo[e]pyrimido[5,4-b][1,4]diazepin-6(11H)-one]	100	84	88
CCOc1cc(C(=O)N2CCC(N3CCN(C)CC3)CC2)ccc1Nc1ncc2c(n1)N(C1CCCC1)c1ccccc1C(=O)N2C [Compound 26]	78	89	100
